Test results taken from PubChem BioAssay (NCI).
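Results reflect a 48-hour exposure of cells in 96-well plates to compound at five concentrations. Here, GI50 denotes the concentration required for 50% inhibition of growth. At the TGI there is no net growth.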

Experiments:
Experiment in all cases: NCI tumour cell line growth inhibition, 48 h
DMS 114 small cell lung = tested on: DMS 114 small cell lung
DMS 273 small cell lung = tested on: DMS 273 small cell lung
HOP-18 NSCLC = tested on: HOP-18 NSCLC
KM20L2 colon = tested on: KM20L2 colon
RXF-631 renal = tested on: RXF-631 renal
SNB-78 CNS = tested on: SNB-78 CNS
XF 498 CNS = tested on: XF 498 CNS
LXFL 529 NSCLC = tested on: LXFL 529 NSCLC
P388 leukemia = tested on: P388 leukemia
P388/ADR leukemia = tested on: P388/ADR leukemia
SN12K1 renal = tested on: SN12K1 renal

Work on CCCCOP1(=O)C=C(C)C(=C(Cl)Cl)C(C)=C1 (stereo unspecified) yielded a TGI (DMS 114 small cell lung) of 10.8 µM, a TGI (DMS 273 small cell lung) of 16.6 µM and a TGI (HOP-18 NSCLC) of 82.2 µM. The TGI (KM20L2 colon) was 5.13 µM, the TGI (RXF-631 renal) was 33.9 µM and the TGI (SNB-78 CNS) was 6.04 µM. The TGI (XF 498 CNS) was 46.2 µM.

For CC(=O)O[C@]12CCCC1C1(O)C(O)CCCC12 (stereo partly specified), the TGI (DMS 114 small cell lung) was over 100 µM, the TGI (DMS 273 small cell lung) was over 100 µM and the TGI (HOP-18 NSCLC) was over 100 µM. It also gave a TGI (KM20L2 colon) of over 100 µM, a TGI (LXFL 529 NSCLC) of over 100 µM and a TGI (SNB-78 CNS) of over 100 µM. The TGI (XF 498 CNS) was over 100 µM.

CN(C)CCSC(=Nc1ccccc1)N1CCCCC1 gave a TGI (DMS 114 small cell lung) of 26.5 µM, a TGI (DMS 273 small cell lung) of 31.1 µM and a TGI (HOP-18 NSCLC) of 33.5 µM. It also gave a TGI (KM20L2 colon) of 31.7 µM, a TGI (LXFL 529 NSCLC) of 29.4 µM and a TGI (XF 498 CNS) of 30 µM.

Work on O=[Se](=O)c1ccccc1.O=[Se](=O)c1ccccc1.[Cu] yielded a GI50 (DMS 114 small cell lung) of 6.77 µM, a TGI (DMS 114 small cell lung) of 14.9 µM and a GI50 (DMS 273 small cell lung) of 20.4 µM. The TGI (DMS 273 small cell lung) was 38.3 µM, the GI50 (HOP-18 NSCLC) was 23.4 µM and the TGI (HOP-18 NSCLC) was 41.1 µM. It also gave a GI50 (KM20L2 colon) of 18.3 µM, a TGI (KM20L2 colon) of 35.1 µM and a GI50 (P388 leukemia) of 5.23 µM. The TGI (P388 leukemia) was 29 µM, the GI50 (P388/ADR leukemia) was 3.99 µM and the TGI (P388/ADR leukemia) was 24.4 µM. It also gave a GI50 (SN12K1 renal) of 7.41 µM, a TGI (SN12K1 renal) of 17.6 µM and a GI50 (SNB-78 CNS) of 12.4 µM. For the same compound, the TGI (SNB-78 CNS) was 17.1 µM, the GI50 (XF 498 CNS) was 15.5 µM and the TGI (XF 498 CNS) was 28.9 µM.

For Cc1cccc(NC(=O)C(=O)C(C(=O)c2ccccc2F)C2OC(=O)c3ccccc32)c1Cl (stereo unspecified), the TGI (DMS 114 small cell lung) was 53 µM, the TGI (DMS 273 small cell lung) was over 100 µM and the TGI (KM20L2 colon) was 88.5 µM. The TGI (LXFL 529 NSCLC) was over 100 µM, the TGI (SNB-78 CNS) was over 100 µM and the TGI (XF 498 CNS) was over 100 µM.

Compound O=C1c2c(nc3ccccc3c2-c2ccccc2)CN1Nc1ccccn1 has a TGI (DMS 114 small cell lung) of over 76.1 µM, a TGI (DMS 273 small cell lung) of over 100 µM and a TGI (LXFL 529 NSCLC) of over 100 µM. For the same compound, the TGI (RXF-631 renal) was 50.7 µM, the TGI (SNB-78 CNS) was over 42.3 µM and the TGI (XF 498 CNS) was over 100 µM.

With CCOC(=O)C(=Cc1ccc(C(=O)OC)cc1)C(=O)OCC the TGI (DMS 114 small cell lung) was 3.74 µM, the TGI (DMS 273 small cell lung) was 3.9 µM and the TGI (HOP-18 NSCLC) was 10.7 µM. It also gave a TGI (KM20L2 colon) of 14.1 µM and a TGI (LXFL 529 NSCLC) of 3.62 µM.

In the case of Cc1cccc(C2=NC(C)(C)C(C)(C)N=C2c2cccc(C)n2)n1, the TGI (DMS 114 small cell lung) is reported as over 100 µM, the TGI (DMS 273 small cell lung) is reported as over 100 µM and the TGI (HOP-18 NSCLC) is reported as over 100 µM. It also gave a TGI (KM20L2 colon) of over 100 µM, a TGI (LXFL 529 NSCLC) of over 100 µM and a TGI (RXF-631 renal) of over 100 µM. It also gave a TGI (SNB-78 CNS) of over 100 µM and a TGI (XF 498 CNS) of over 100 µM.

For C/C(=N\NC(N)=S)C(CN(CC(C)C)CC(C)C)C(=O)Nc1ccc(C)cc1C (stereo unspecified), the TGI (DMS 114 small cell lung) was over 100 µM, the TGI (DMS 273 small cell lung) was over 100 µM and the TGI (HOP-18 NSCLC) was over 100 µM. The TGI (KM20L2 colon) was over 100 µM, the TGI (LXFL 529 NSCLC) was over 100 µM and the TGI (SNB-78 CNS) was over 100 µM. The TGI (XF 498 CNS) was over 100 µM.

COc1cccc(Cc2c3cc(OC)ccc3cc[n+]2C)c1 was tested, and the TGI (KM20L2 colon) was over 100 µM, the TGI (LXFL 529 NSCLC) was over 100 µM and the TGI (SNB-78 CNS) was over 100 µM. The TGI (XF 498 CNS) was 70.7 µM.

With c1ccc2c(c1)nc(NC1CCCC1)c1[nH]c(C3CCCC3)nc12 the TGI (DMS 114 small cell lung) was 35.4 µM, the TGI (DMS 273 small cell lung) was 22.3 µM and the TGI (HOP-18 NSCLC) was 45.5 µM. The TGI (KM20L2 colon) was 20.8 µM, the TGI (LXFL 529 NSCLC) was 22.8 µM and the TGI (SNB-78 CNS) was over 92.7 µM. It also gave a TGI (XF 498 CNS) of 34.4 µM.

c1ccc2c(c1)CCc1cc3cc4c(nc3nc1-2)-c1ccccc1CC4 gave a TGI (DMS 273 small cell lung) of over 100 µM, a TGI (LXFL 529 NSCLC) of over 100 µM and a TGI (SNB-78 CNS) of over 100 µM.

NCCNc1cccc2ccccc12 gave a TGI (DMS 114 small cell lung) of over 100 µM, a TGI (DMS 273 small cell lung) of over 100 µM and a TGI (HOP-18 NSCLC) of over 100 µM. The TGI (KM20L2 colon) was over 100 µM, the TGI (LXFL 529 NSCLC) was over 100 µM and the TGI (RXF-631 renal) was over 100 µM. The TGI (SNB-78 CNS) was over 100 µM.
